The record followed here is ChEMBL document CHEMBL3988442, “University of Dundee, Small-Polar-MMV Screening Library” (2021).

SMILES strings stand for the structures. A value given as a limit tells only on which side of the number the result lay.

Test [1] in a line: microbe, parasite or virus in culture. The following applies: Mycobacterium tuberculosis, 96 h, read-out: pIC50 (converted).
Test [2] can be described thus: microbe, parasite or virus in culture. The following applies: Mycobacterium tuberculosis, 72 h, read-out: pIC50 (converted).

As to `CNc1cc2c(nn1)CCN(C(=O)c1cccc3c1OCCO3)C2`, the IC50 in test [1] and in test [2] was more than 50.1 µM in each case.
As to `CC(C)NC(=O)NC(C)c1ccccc1` (centres undefined), the IC50 in test [1] and in test [2] was more than 501 µM in each case.
Take `CC(C)Oc1ccc(CNC(=O)N2CCCC2)cn1`: the values for the IC50 in test [1] and in test [2] were 118 µM and 126 µM, respectively.
Taken in the same sequence, the figures for `NCCc1cnn(-c2ccccc2)c1` were 250 µM and 230 µM.
The like results for `CCc1noc(CNc2cc3c(cc2Cl)OCCCO3)n1` were, in that order, more than 50.1 µM and more than 50.1 µM.
For the compound `Cc1nc(-c2nnc[nH]2)sc1C(=O)N1CCCC1Cn1cccn1` (centres undefined), the IC50 in test [1] and in test [2] was more than 50.1 µM each time.
As to `N#Cc1cnc2cc(F)cc(F)c2c1NC1CCN(CC(N)=O)CC1`, the IC50 in test [1] and in test [2] was more than 50.1 µM in each case.
`CN(Cc1nccs1)C(=O)C1COc2ccccc2C1` (centres undefined): the IC50 in test [1] was 195 µM; in test [2], 242 µM.
Taken in the same sequence, the figures for `Cn1nc(C(F)(F)F)c(Cl)c1C(=O)N[C@@H]1CCNC1` were more than 501 µM and 168 µM.
As to `Cc1ccc(-c2nc(CSc3nnc(N)[nH]3)no2)cc1`, the IC50 in test [1] was 80.2 µM; in test [2], 107 µM.
Take `CN(CCc1ccc(Br)cc1)C(=O)CCCN`: the IC50 was more than 501 µM in test [1] and 179 µM in test [2].
Consider `NS(=O)(=O)N1CCN(CCCc2cccc(F)c2)CC1`, for which the IC50 in test [1] and in test [2] was more than 501 µM throughout.
In the case of `CC(c1ccccn1)N(C)C(=O)NCCn1c(=O)oc2ccccc21` (centres undefined), the IC50 in test [1] and in test [2] was more than 50.1 µM in each case.
With `O=C1c2ccccc2OCC1CN1CCOCC1` (centres undefined), the IC50 in test [1] was more than 501 µM; in test [2], 266 µM.
For the compound `CC[C@@H](CO)NC(=O)NCC(C)c1ccsc1` (some centres undefined), the IC50 in test [1] is 495 µM; in test [2] it was 483 µM.
For the compound `NC(=O)C(NC(=O)c1sccc1Br)c1ccccc1` (centres undefined), the IC50 in test [1] and in test [2] was more than 501 µM in each case.
`CC(C)CSCCSc1nnc(N)[nH]1`: the IC50 in test [1] was more than 501 µM; in test [2], 240 µM.
The like results for `COCc1nn(CCC2CCCC2)c(=O)o1` were, in that order, 86.6 µM and 68.2 µM.
In the case of `CN(CCOc1ccc(Cl)cc1)C(=O)C(C)(C)CN`, the IC50 in test [1] is 276 µM; in test [2] it was 216 µM.
Taken in the same sequence, the figures for `O=C(Nc1cc(F)cc(F)c1)c1ccncc1` were more than 501 µM and 224 µM.
Taken in the same sequence, the figures for `CC(C(=O)Nc1ccc(Br)cc1)n1cnnn1` (centres undefined) were 199 µM and 393 µM.
For `CN(C)c1ccc(Br)c(S(=O)(=O)NC2CCNC2)c1` (centres undefined), the IC50 in test [1] is 263 µM; in test [2] it was 232 µM.
Taken in the same sequence, the figures for `Cc1cccc(CN2CCCC3(CCN(C4CCSCC4)C3)C2=O)c1` (centres undefined) were 15.8 µM and 10 µM.
Turning to `COCc1nn(Cc2csc(C(C)C)n2)c(=O)o1`, the IC50 in test [1] was 22.5 µM; in test [2], 14.9 µM.
For the compound `COc1cccc(S(=O)(=O)CCN(C)CCO)c1`, the IC50 in test [1] is 352 µM; in test [2], 109 µM.
With `CN1CCN(C(=O)c2cc(-c3cccs3)on2)CC1`, the IC50 in test [1] was 107 µM; in test [2], 171 µM.
As to `CCC1c2ccsc2CCN1CC(=O)NC` (centres undefined), the IC50 in test [1] and in test [2] was more than 501 µM each time.
Turning to `Cc1ccncc1NC1CS(=O)(=O)c2ccccc21` (centres undefined), the IC50 in test [1] was 43.2 µM; in test [2] it was 27.1 µM.
For `CCCNc1cc(-n2cccn2)ncn1`, the IC50 in test [1] was 280 µM; in test [2], 58.4 µM.
As to `CCCn1nnnc1NCc1ccc(C)s1`, the IC50 is 51.8 µM in test [1] and 64.7 µM in test [2].
Take `COc1cccc(C(=O)NCc2ccoc2C)n1`: the IC50 was more than 501 µM in test [1] and 364 µM in test [2].
The like results for `CC(=O)c1ccc(NCC(=O)NC(C)C(C)C)cc1` (centres undefined) were, in that order, 182 µM and 182 µM.
Taken in the same sequence, the figures for `CCCOCCNC(=O)c1cc(C(F)(F)F)n[nH]1` were 43.8 µM and 54.8 µM.
`O=C(NCC(O)C1CCCCC1)[C@@H](O)c1ccccc1` (some centres undefined): the IC50 was 189 µM in test [1] and 86.1 µM in test [2].
The like results for `CCNc1ccnc(C(=O)NCc2ccccc2)c1` were, in that order, 148 µM and 169 µM.
`O=c1n(Cc2ccccc2)nnn1-c1cccs1`: the IC50 is 12.7 µM in test [1] and 7.64 µM in test [2].
The like results for `CN(C)c1cc(CN)c2ccccc2n1` were, in that order, 132 µM and 97.3 µM.
Taken in the same sequence, the figures for `Cc1ccc2nnc(C(=O)NCC3CCCC3)nc2c1` were 13.4 µM and 10.4 µM.
As for `CCOCCN1CCN(Cc2nnc(OCC)s2)CC1`, the IC50 in test [1] and in test [2] was more than 501 µM throughout.
In the case of `CCN1C(=O)C2(CCOCC2)c2cc(NC(=O)c3cnoc3C)ccc21`, the IC50 in test [1] and in test [2] was more than 50.1 µM in each case.
As to `CN1CCCN(C(=O)c2cc3c(s2)CCCC3)CC1`, the values for the IC50 in test [1] and in test [2] were more than 501 µM and 211 µM, respectively.
For the compound `O=C(c1cnsn1)N1CCN(Cc2ccc(Cl)s2)CC1`, the values for the IC50 in test [1] and in test [2] were 71 µM and 45.6 µM, respectively.
As for `COCCSCc1cccc(NC(=O)C(C)N)c1` (centres undefined), the IC50 in test [1] was more than 501 µM; in test [2] it was 119 µM.
For the compound `COc1ccc(-c2cc(NCCO)nc(N)n2)cc1C`, the IC50 in test [1] was more than 501 µM; in test [2], 280 µM.
Take `CCCC(=O)N(CCCN1CCOCC1)c1nc2c(C)ccc(Cl)c2s1`: the values for the IC50 in test [1] and in test [2] were 19.2 µM and 12.8 µM, respectively.
Take `Cc1cc(NC(=O)CN(C)Cc2ccccc2)no1`: the IC50 in test [1] was 243 µM; in test [2], 266 µM.
In the case of `CC(CN1CCOCC1)NC(=O)c1csc(Br)c1` (centres undefined), the IC50 in test [1] was 205 µM; in test [2], 102 µM.
The like results for `Cn1ccnc1N1CCN(c2ccc(C#N)cn2)CC1` were, in that order, more than 501 µM and more than 501 µM.
Taken in the same sequence, the figures for `CCCN(CCn1c(=O)oc2ccccc21)CC1CC1` were more than 50.1 µM and more than 50.1 µM.
The like results for `COCCC1(CNC(=O)NCC2CCCS2)CCCC1` (centres undefined) were, in that order, more than 50.1 µM and more than 50.1 µM.
For the compound `OCC1CCCN1c1cc(N2CCC(OC3CCCC3)CC2)ncn1` (centres undefined), the IC50 was 13.8 µM in test [1] and 15.5 µM in test [2].
In the case of `CC(C)N(C)S(=O)(=O)N(C)Cc1ccc(Br)o1`, the IC50 in test [1] was 394 µM; in test [2], 204 µM.
For the compound `CC(=O)Nc1cccc(-c2ccccc2CCN)c1`, the IC50 in test [1] was more than 50.1 µM; in test [2] it was 49.7 µM.
In the case of `OCCCN1CCC(=Cc2ccccc2)CC1`, the IC50 in test [1] is 250 µM; in test [2], 277 µM.
Consider `CC(=O)NCC1CN(c2ncccc2F)CCO1` (centres undefined), for which the results for the IC50 in test [1] and in test [2] were 210 µM and 243 µM, respectively.
For the compound `CN(C)C(CN)C1CCCCC1` (centres undefined), the IC50 is 252 µM in test [1] and 279 µM in test [2].
Taken in the same sequence, the figures for `CCNC(=O)c1ccn(-c2ccccc2)n1` were 232 µM and 340 µM.
`CCOCC(O)CSc1nccn1-c1cccc(F)c1` (centres undefined): the IC50 in test [1] was 290 µM; in test [2] it was 189 µM.
The like results for `Cc1cccc(NC(=O)NCc2c(C)noc2C)n1` were, in that order, more than 501 µM and 238 µM.
Taken in the same sequence, the figures for `CCOCC(=O)NC(C)c1c(F)cccc1OC` (centres undefined) were 277 µM and 178 µM.
As for `CCN(CC)c1ccc(C(=O)Nc2cc[nH]n2)cn1`, the IC50 was more than 501 µM in test [1] and 251 µM in test [2].
As to `O=C(Nc1cc[nH]n1)c1csc(I)c1`, the values for the IC50 in test [1] and in test [2] were more than 501 µM and 193 µM, respectively.
Taken in the same sequence, the figures for `O=C1CCN(CCOc2cc(F)cc(Br)c2)CCN1` were 279 µM and 198 µM.
Taken in the same sequence, the figures for `COCCN1CCCN(C(=O)c2cc(Cl)c[nH]2)CC1` were more than 501 µM and 195 µM.
Regarding `CN(C)CCN1CCOCC2(C1)CN(Cc1ccsc1)CCO2` (centres undefined), the IC50 in test [1] and in test [2] was more than 50.1 µM in each case.
Consider `Cc1nc(CN(C)C(=O)c2nc(C(C)C)cs2)no1`, for which the IC50 in test [1] was 5.83 µM; in test [2] it was 71.2 µM.
Regarding `COc1ccc(-n2cc(CNC(=O)c3ccccn3)nn2)cc1`, the IC50 in test [1] and in test [2] was more than 50.1 µM throughout.
Turning to `N[C@H]1CCN(S(=O)(=O)c2ccc(F)c(C(F)(F)F)c2)C1`, the IC50 in test [1] was 171 µM; in test [2] it was 100 µM.
With `Clc1ccc(Cc2nc(CNCCn3cccn3)cs2)cc1`, the IC50 was 24.8 µM in test [1] and 22.8 µM in test [2].
Take `CCOC(=O)c1ccc(N2CCC(CCO)CC2)nc1`: the IC50 in test [1] was 198 µM; in test [2] it was 84 µM.
Turning to `O=S1(=O)CCCN(Cc2ccc(Br)c(F)c2)CC1`, the IC50 in test [1] was 242 µM; in test [2], 386 µM.
`CCOc1ncccc1CNC(=O)c1[nH]ncc1Br`: the IC50 in test [1] and in test [2] was more than 501 µM each time.
Turning to `O=S(=O)(CCNc1cncc(Cl)n1)N1CCSCC1`, the IC50 is 215 µM in test [1] and 252 µM in test [2].
Taken in the same sequence, the figures for `O=C(CCn1cccn1)N1CCCCCC1` were more than 501 µM and 110 µM.
The like results for `c1cnc(N2CC[C@@H](OCC3CC3)[C@@H]2Cc2cccnc2)nc1` were, in that order, more than 50.1 µM and more than 50.1 µM.
Taken in the same sequence, the figures for `c1cncc(-c2nc(SCC3CCCCO3)n[nH]2)c1` (centres undefined) were more than 501 µM and 229 µM.
Regarding `COc1ccc(C(O)CNC(=O)Nc2nncs2)cc1` (centres undefined), the IC50 in test [1] is 380 µM; in test [2], 195 µM.
Take `Cc1noc(CSc2ccc(C(=O)N3CCC3)cc2)n1`: the IC50 in test [1] and in test [2] was more than 501 µM each time.
For `CCN1CCN(C(C)CNC(=O)Cn2cnnn2)CC1` (centres undefined), the IC50 in test [1] and in test [2] was more than 501 µM in each case.
On to `N#Cc1ccc(NCc2cccc(COC3CCOCC3)c2)nc1`, for which the IC50 in test [1] and in test [2] was more than 50.1 µM throughout.
As for `CCc1c(C)n(CCC#N)c2nc3ccccc3n2c1=O`, the IC50 in test [1] and in test [2] was more than 50.1 µM throughout.
As to `CC(C)N(CCOc1cccc(F)c1)CC(N)=O`, the IC50 is 199 µM in test [1] and 210 µM in test [2].
